Reference: patent publication US20240366616A1, “SOLUBLE PHARMACEUTICAL COMPOSITIONS COMPRISING SALTS OF DISUBSTITUTED 1, 2, 4-TRIAZINE COMPOUND” (Mineralys Therapeutics, Inc., priority 2021, published 2024)

Key:
Type in all cases: physicochemical
[1] = Stability test of 10% API capsules: purity test (related substances); settings: Initial
Procedure: Metal salt-free excipients were selected.
D-Mannitol and talc were mixed and sieved. The API was added to the sieved mixture, blended, sieved, and filled in HPMC capsules.

[2] = Study II of tablets: purity test (related substances) after storage; settings: Initial
From the text: API granules, a disintegrant, and lubricants were mixed in a polyethylene bag. After confirming pressure dependency, the mixture was subjected to sequential tableting (900 kilogram of force, i.e. about 8826 Newtons).

[3] = Powder x-ray diffraction of ALDSI stored with a metal salt (croscarmellose Na); settings: 3 days storage with croscarmellose Na, 60° C./75% RH
Procedure: FIG. 1: Powder x-ray diffraction peaks detected from MLS-101 after 3 days of storage with a metal salt (croscarmellose Na) (storage conditions: 60° C./75% RH).
ALDSI-derived peaks were detected after 3 days of storage of ALDSI with a metal salt (croscarmellose Na). (storage conditions: 60° C./75% RH)

[4] = Dissolution test of ALDSI (JP Paddle Method, JP Second Fluid) and XRPD after storage or processing of API alone
Procedure: Storage conditions: 25° C./60% RH, 40° C./75% RH, and 60° C./75% RH (relative humidity) in an open container
Sampling time points: 3 days and 1 week
Test method: JP Apparatus for Paddle Method (Apparatus 2)
Revolutions: 50 rpm for 0-30 min, and 250 rpm for 30 min.
Dissolution medium: JP Second Fluid for dissolution test (A mixture of phosphate buffer solution (pH 6.8) and water (1:1), as described in the Japanese Pharmacopoeia.)

[5] = Water solubility of API free base

CC(=O)N[C@H]1CC[C@H](NC(=O)CN2CCN(c3nncc(-c4ccc(C)cc4)n3)CC2)CC1 [ALDSI]
Individual related substances RRT 0.95 [1]: 0.10%
Individual related substances RRT 0.96 [1]: 0.04%
Individual related substances RRT 0.98 [1]: 0.11%
Individual related substances RRT 1.18 [1]: 0.47%
Individual related substances RRT 1.19 [1]: 0.03%
Total related substances [1]: 0.75%
Individual related substances RRT 0.81 [2]: 0.11%
Individual related substances RRT 0.85 [2]: 0.02%
Individual related substances RRT 1.09 [2]: 0.02%
Individual related substances RRT 1.13 [2]: 0.02%
Individual related substances RRT 1.35 [2]: 0.02%
Individual related substances RRT 1.43 [2]: 0.02%
Individual related substances RRT 1.69 [2]: 0.02%
Total related substances [2]: 0.23%
Propensity toward disproportionation in the presence of a metal salt [3]: high propensity toward disproportionation
Dissolution differences among samples ([4]; API alone compressed at 300, 600, and 900 kilograms of force): no differences in dissolution among samples
Dissolution differences among samples ([4]; API alone ground for 1, 3, 20, and 30 min): no differences in dissolution among samples
Dissolution differences among samples ([4]; API alone kneaded with large, middle, and small amounts of water): no differences in dissolution among samples
Dissolution delay / new XRPD peaks after storage ([4]; API alone, 25° C./60% RH, 40° C./75% RH, 60° C./75% RH open container, 3 days and 1 week): no delay of dissolution or appearance of new peaks on XRPD
Dissolution changes over time ([4]; compressed API alone stored at 60° C./75% RH for 3 days or 1 week): no changes in dissolution over time
Dissolution changes over time ([4]; ground API alone stored at 60° C./75% RH for 3 days or 1 week): no changes in dissolution over time

CC(=O)N[C@H]1CC[C@H](NC(=O)CN2CCN(c3nncc(-c4ccc(C)cc4)n3)CC2)CC1 [API free base]
Solubility in water [5]: poorly soluble in water
